Values after ≈ are worked out from the molar mass of the structure shown.
Legend:
RG2 cells = assay: In situ (intra-cranial) RG2 GBM tumor in rats, MRI tumor volume; format: in vivo, F344 rats; settings: BP 300 mg/kg/day s.c. day 4-8, i.c. RG2
Experimental: The RG2 cells (rat GBM) and DBTRG-05MG cells (human GBM) were used in animal experiments to monitor the anti-tumor activities of AS-C and BP. Male F344 rat (230-260 g) and male Foxn1 nu/nu mice (10-12 weeks) were obtained from National Laboratory Animal Center (Taipei, Taiwan). All procedures were performed in compliance with the Standard Operation Procedures of the Laboratory Animal Center of Tzu Chi University (Hualien, Taiwan). Animals were kept under pathogen-free conditions and fed a standard laboratory diet. The DBTRG-05MG cells (human GBM) and RG2 cells (rat GBM) were prepared for nude mice xenografts and rat allogenics, respectively.
The cytotoxic effect of AS-C on in situ tumor was determined with RG2 cells. […] Tumor volumes were measured and calculated by 3-T unit MRI (General Electric, Wisconsin, USA) with echo-planar imaging capability (Signa LX 3.8, General Electric, Wisconsin, USA) in Buddhist Tzu Chi General Hospital (Hualien, Taiwan). […]
The rats in two groups (6/group) were implanted i.c. (striatum) with 5×10^4 RG2 cells, and randomly treated with BP (300 mg/kg/day) or vehicle s.c. in the hind flank region after tumor cell implantation at day 4, 5, 6, 7 and 8 for five dosages. Tumor volume was measured and calculated by MRI. […] Finally, the whole tumor sizes (mm^3) were measured and calculated for each group.

CL1-5 = assay: Cytotoxicity (IC50) on CL1-5; format: cell-based; settings: Homo sapiens
Experimental: (§1) Human tumor cell lines (MCF-7, CL1-5, HT-29, Caco-2), human umbilical vascular endothelial cells (HUVEC), and human dermal fibroblasts (HDF) were tested for sensitivity on Angelicae sinensis extracts, ligustilide, n-butylidenephthalide and its derivatives in vitro. The DBTRG-05MG, BCM, HL-60 and J5 cells were grown in RPMI-1640 medium containing 10% fetal calf serum and 100 ng/ml penicillin and […] streptomycin at 37° C. in a humidified atmosphere with 5% CO2. The G5T/VGH, RG2, Ni 8, SVEC and Balb/3T3 cells were cultured in DMEM with 10% fetal calf serum and 100 ng/ml penicillin and […] streptomycin at 37° C. in 5% CO2. Mycoplasma infection of the culture cells was excluded by PCR screening methods before each experiment.
The effects on cell viability after the treatments with different concentrations of the Angelicae sinensis extracts or the active components purified therefrom were evaluated by modified MTT assay in triplicate. Briefly, the cells (5×10^3) were incubated into 96-well plates containing 100 μl of a growth medium. The cells were permitted to adhere for 24 hours, then treated with 100 μl of the herbal extracts or the active components dissolved in the medium. The control contained DMSO of <0.02% (v/v). […] Absorbance at 550 nm of the solutions was measured with MRX Microtiter Plate Luminometer (DYNEX, USA). The absorbance of untreated cells was considered as 100%. […]

brain tumor cell lines = assay: Cytotoxicity (IC50) on brain tumor cell lines, pooled statement; format: cell-based; settings: read-out: IC50 to brain tumor cell lines
Experimental: (§2) The effects on cell viability after the treatments with different concentrations of the Angelicae sinensis extracts or the active components purified therefrom were evaluated by modified MTT assay in triplicate. Briefly, the cells (5×10^3) were incubated into 96-well plates containing 100 μl of a growth medium. The cells were permitted to adhere for 24 hours, then treated with 100 μl of the herbal extracts or the active components dissolved in the medium. The control contained DMSO of <0.02% (v/v). After 24, 48 and 72 h incubation, the drug-containing medium was replaced by 50 μl of fresh medium, and cells in each well were incubated in 50 μl of 400 μg/ml MTT for 6-8 h. The medium and MTT were removed later and 100 μl of DMSO was added to each well and to the control, to dissolve the soluble components. Absorbance at 550 nm of the solutions was measured with MRX Microtiter Plate Luminometer (DYNEX, USA). The absorbance of untreated cells was considered as 100%. To evaluate the effects of the extracts or the active components on cell growth rate of GBM cells, 5×10^3 exponentially growing cells were treated with different concentrations for 24, 48, or 72 h. The cytotoxicity of each test substance was determined as an IC50 value, which represents the drug concentration required to cause 50% inhibition. All experiments in this study were performed in triplicate.

[1] = Cytotoxicity (IC50) on HDF; format: cell-based, human; settings: human, human dermal fibroblasts (HDF), normal cells; Table 1, value in parentheses
Description: Human umbilical vascular endothelial cells (HUVECs) were purchased from Cascade Biologics, Inc. (USA). HUVECs were maintained in Medium 200 (Cascade Biologics, Inc. USA) supplemented with 10% fetal bovine serum (FBS; Gibco BRL) and low serum growth supplement (LSGS; Cascade Biologics, Inc. USA). Human dermal fibroblasts (HDFs) were purchased from Cascade Biologics, Inc. (USA). HDFs were maintained in Medium 106 (Cascade Biologics, Inc. USA) supplemented with 10% FBS and low serum growth supplement (LSGS; Cascade Biologics, Inc. USA). The human colon adenocarcinoma cell lines HT-29 were purchased from the ATCC (Manassas, Va. USA). HT-29 were maintained in Dubecco's Modified Eagle Medium (DMEM; Gibco) supplemented with 10% FBS and 100 ng/ml penicillin and […] streptomycin (Life Technologies, Inc., Grand Island, N.Y., USA). For the proliferation assay of cell in log growth (G1), the cells were harvested at 60-80% of confluence. 100 μl of cell suspensions were dispensed onto a Falcon 96-well plates The densities were 6×10^3 cells/well in Medium 200 (for HUVECs), and 9×10^3 cells/well in Medium 106 (for HDFs), and 5×10^3 cells/well in DMEM (for HT-29) supplemented with 10% FBS. The cells were pre-incubated for 24 hours in an incubator (Humidified atmosphere, e.g., at 37° C., 5% CO2). 10 μl of toxicant of various concentrations were added into the culture medium of the plate. The cell cultures were incubated for 48 hours. 10 μl of the Cell Counting Kit-8 (CCK-8; DOJINDO) solution were added and the cell cultures incubated for 1˜4 hours in the incubator. The absorbance was measured at 450 nm, using a microplate reader with a reference wavelength at 600 nm or over.
as §1
as §2, with “To evaluate the effects of the extracts or the active components on cell growth rate of GBM cells, 5×10^3 exponentially growing cells were treated with different concentrations for 24, 48, or 72 h. The cytotoxicity of each test substance was determined as an IC50 value, which represents the drug concentration required to cause 50% inhibition. All experiments in this study were performed in triplicate.” left out

Structure (SMILES): CCCC=C1OC(=O)c2ccccc21 [BP, n-Butylidenephthalide]
- mean tumor volume at day 14 (MRI) (RG2 cells): 46.6±1.8 mm^3
- mean tumor volume at day 16 (MRI) (RG2 cells): 91.68±8.3 mm^3
- IC50 (CL1-5; Table 2): > 100 µg/mL
- IC50 (CL1-5; Table 2, value in parentheses): > 532 µM
- IC50 (brain tumor cell lines): 1.4 to 10 µg/mL (≈ 7.44 to 53.1 µM)
- IC50 [1]: 1600 µM
